How the values were obtained:
[1] = test system: pCHK1 (S345) in Colo320 DM cells; assay: CHK1 cellular activity (phospho-CHK1 AlphaLisa); format: cell-based, human; conditions: Homo sapiens, COLO 320DM, 16 h, compound overnight (approximately 16 hours)
Experimental: Phospho-CHK1 cellular activity was measured as a marker of replication stress which is a consequence of RNR inhibition.
Colo320 DM cells (ATCC #CCL-220, derived from human colorectal adenocarcinoma, Dukes' type C) were seeded on a 96-well cell culture treated assay plate at a density of 50,000 cells/well in 200 μL of RPMI-1640 media supplemented with 10% Fetal Bovine Serum and incubated at 37 degrees Celsius overnight. The following day, test compound dilutions were added directly to the plated cells by a Tecan digital dispenser to a final DMSO concentration of <0.5% and incubated at 37 degrees Celsius overnight (approximately 16 hours). The following day all culture media is removed from the cells. 75 μL of 1× AlphaLisa lysis buffer is added to each well and plates are agitated on a shaker for 30 minutes at room temperature. The lysis of cells and detection of pCHK1 (S345) are performed with reagents contained within the AlphaLisa Sure Fire assay kit (Perkin Elmer #ALSU-PCHK1-A) according to the manufacturer's instructions. 10 μL of each lysate was then transferred to a white, 384-well assay plate (Perkin Elmer #6008280). 5 μL of Acceptor mix was then added to each well of lysate in the white, 384-well assay plate and incubated in the dark at room temperature for 60 minutes. 5 μL of Donor mix was then added to each well of the white, 384-well assay plate in subdued light and incubated at room temperature for 60 minutes. Plates are read on an Alpha Technology-compatible plate reader using standard AlphaLisa settings.

[2] = biological target: RNR (RNR1:RNR2) (Homo sapiens (Human), UniProt P23921+P31350); assay: RNR enzyme activity, rapid-fire mass spectrometry (RFMS) assay; format: biochemical; conditions: [RNR] 50 nM, 1:1 RNR1:RNR2, [CDP] 5 μM, [ATP] 1 mM, 37° C., 45 min
Sequence of RNR (RNR1:RNR2) (P23921 whole entry): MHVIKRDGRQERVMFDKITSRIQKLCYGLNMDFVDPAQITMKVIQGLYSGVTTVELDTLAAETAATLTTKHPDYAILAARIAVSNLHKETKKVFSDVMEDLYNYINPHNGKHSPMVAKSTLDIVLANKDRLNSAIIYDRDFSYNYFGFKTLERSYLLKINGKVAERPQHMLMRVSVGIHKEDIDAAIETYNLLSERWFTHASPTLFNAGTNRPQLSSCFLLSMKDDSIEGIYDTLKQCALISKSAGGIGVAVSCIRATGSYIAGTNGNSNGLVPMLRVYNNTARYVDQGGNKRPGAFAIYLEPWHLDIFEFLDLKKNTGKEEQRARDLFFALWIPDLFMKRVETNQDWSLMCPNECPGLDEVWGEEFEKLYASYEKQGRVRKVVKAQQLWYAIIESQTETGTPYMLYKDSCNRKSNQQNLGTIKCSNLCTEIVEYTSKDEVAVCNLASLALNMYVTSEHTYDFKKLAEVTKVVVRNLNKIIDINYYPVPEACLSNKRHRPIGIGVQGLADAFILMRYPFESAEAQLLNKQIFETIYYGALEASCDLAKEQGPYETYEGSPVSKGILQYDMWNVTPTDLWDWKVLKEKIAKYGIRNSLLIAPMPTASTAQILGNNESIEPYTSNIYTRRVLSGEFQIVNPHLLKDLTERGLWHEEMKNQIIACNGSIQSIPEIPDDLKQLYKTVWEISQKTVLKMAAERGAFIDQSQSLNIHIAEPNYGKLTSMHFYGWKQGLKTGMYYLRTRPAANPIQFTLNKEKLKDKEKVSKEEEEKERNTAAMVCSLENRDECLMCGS
Sequence of RNR (RNR1:RNR2) (P31350 whole entry): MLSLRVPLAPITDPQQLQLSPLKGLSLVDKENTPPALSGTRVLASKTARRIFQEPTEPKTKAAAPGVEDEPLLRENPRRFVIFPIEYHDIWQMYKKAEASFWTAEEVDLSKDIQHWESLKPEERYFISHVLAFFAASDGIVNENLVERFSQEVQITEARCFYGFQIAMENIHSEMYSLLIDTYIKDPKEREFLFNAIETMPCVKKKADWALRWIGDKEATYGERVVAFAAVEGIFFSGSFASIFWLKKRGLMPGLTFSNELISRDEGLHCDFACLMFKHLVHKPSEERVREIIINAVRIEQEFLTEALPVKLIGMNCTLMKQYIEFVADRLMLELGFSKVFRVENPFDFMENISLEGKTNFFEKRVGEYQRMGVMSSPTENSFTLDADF
Experimental: A rapid-fire mass spectrometry (RFMS) assay was used to assess RNR enzyme activity using a 384 well plate and a robotic platform.
The plate layout included two validated reference compounds (Triapine (3-AP) and Hydroxyurea (HU)): • A dose response in duplicate; top concentration: 5 μM (3-AP) and 250 μM (HU), semi-log • dilutions. • Spike wells in triplicate randomly spotted at four concentrations: • 250 μM, 100 μM, 30 μM and 2 μM for HU • 5 μM, 2 μM, 0.6 μM and 0.04 μM for 3-AP
First, the multidrop pipes were saturated for 30 minutes with enzymatic solution. Then 30 μL of Stop solution was distributed in column 24. Next, 15 μL of enzyme was distributed in column 1 to 24. Next, a pre-incubation step of 15 minutes at room temperature occurred, followed by distribution of 15 μL of substrate solution (column 1 to 24). Next, the plate was incubated for 45 minutes at 37° C. 30 μL of Stop solution was distributed to columns 1 to 23.
The final parameters for the enzyme reactions were: • Incubation: 37° C., 45 min • [CDP]: 5 μM; [ATP]: 1 mM; [NADPH]: No • [RNR]final: 50 nM with 1:1 (RNR1:RNR2) ratio • Final volume: 30 μL • Stop solution: 6% HCOOH containing 2 μM of 15
The compounds were screened at concentrations from 10 nM to 30 μM.

| SMILES | IC50 [1] [µM] | IC50 [2] [µM] |
| --- | --- | --- |
| Cc1ccc(F)c([C@@H](C)[C@H](NS(=O)(=O)c2ccc(F)c(C#N)c2)c2nn[nH]n2)c1C [Example 37, 3-cyano-4-fluoro-N-((1S,2R)-2-(6-fluoro-2,3-dimethylphenyl)-1-(2H-tetrazol-5-yl)propyl)benzensulfonamide] | 50 to 100 | 1 to 5 |
| Cc1ccc(F)c([C@@H](C)[C@H](NS(=O)(=O)c2cc(Cl)c(Cl)cc2F)c2nn[nH]n2)c1C [Example 40, 4,5-dichloro-2-fluoro-N-((1S,2R)-2-(6-fluoro-2,3-dimethylphenyl)-1-(2H-tetrazol-5-yl)propyl)benzenesulfonamide] | 50 to 100 | 1 to 5 |
| Cc1cc(S(=O)(=O)N[C@H](c2nn[nH]n2)[C@H](C)c2c(F)ccc(C)c2C)c(F)cc1Cl [Example 42] | 50 to 100 | 1 to 5 |
| Cc1ccc(F)c([C@@H](C)[C@H](NS(=O)(=O)c2cn(C)nc2C)c2nn[nH]n2)c1C [Example 43] | 50 to 100 | 1 to 5 |
| Cc1ccc(F)c([C@@H](C)[C@H](NS(=O)(=O)c2ccc(Cl)c3nonc23)c2nn[nH]n2)c1C [Example 46] | 50 to 100 | 0.1 to 1 |
| Cc1ccc(F)c([C@@H](C)[C@H](NS(=O)(=O)c2cccc3[nH]c(=O)ccc23)c2nn[nH]n2)c1C [Example 47] | 50 to 100 | 0.1 to 1 |
| [2H]C([2H])([2H])Oc1cc(Cl)ccc1S(=O)(=O)N[C@H](c1nn[nH]n1)[C@H](C)c1c(F)ccc(C)c1C [Example 54, 4-chloro-N-((1S,2R)-2-(6-fluoro-2,3-dimethylphenyl)-1-(2H-tetrazol-5-yl)propyl)-2-(methoxy-d3)benzenesulfonamide] | 10 to 30 | ≤ 0.1 |
| Cc1ccc(F)c([C@@H](C)[C@H](NS(=O)(=O)c2c(F)cc(Cl)cc2F)c2nn[nH]n2)c1C [Example 56, 4-chloro-2,6-difluoro-N-((1S,2R)-2-(6-fluoro-2,3-dimethylphenyl)-1-(2H-tetrazol-5-yl)propyl)benzenesulfonamide] | 50 to 100 | 0.1 to 1 |
| Cc1ccc(F)c([C@@H](C)[C@H](NS(=O)(=O)c2ccc(Cl)cc2C2CC2)c2nn[nH]n2)c1C [Example 61, 4-chloro-2-cyclopropyl-N-((1S,2R)-2-(6-fluoro-2,3-dimethylphenyl)-1-(2H-tetrazol-5-yl)propyl)benzenesulfonamide] | 10 to 30 | 0.1 to 1 |
| COc1nc(Cl)ccc1S(=O)(=O)N[C@H](c1nn[nH]n1)[C@H](C)c1c(F)ccc(C)c1C [Example 62, 6-chloro-N-((1S,2R)-2-(6-fluoro-2,3-dimethylphenyl)-1-(2H-tetrazol-5-yl)propyl)-2-methoxypyridine-3-sulfonamide] | 10 to 30 | ≤ 0.1 |
| COc1cc(C#N)ccc1S(=O)(=O)N[C@H](c1nn[nH]n1)[C@H](C)c1c(F)ccc(C)c1C [Example 64, 4-cyano-N-((1S,2R)-2-(6-fluoro-2,3-dimethylphenyl)-1-(2H-tetrazol-5-yl)propyl)-2-methoxybenzenesulfonamide] | 50 to 100 | 0.1 to 1 |

More lines, now with the values ahead:

| IC50 [1] [µM] | IC50 [2] [µM] | SMILES |
| --- | --- | --- |
| 50 to 100 | 1 to 5 | Cc1ccc(F)c([C@@H](C)[C@H](NS(=O)(=O)c2ccc(F)c(C(N)=O)c2)c2nn[nH]n2)c1C [Example 38, 2-fluoro-5-(N-((1S,2R)-2-(6-fluoro-2,3-dimethylphenyl)-1-(2H-tetrazol-5-yl)propyl)sulfamoyl)benzamide] |
| 10 to 30 | 0.1 to 1 | Cc1ccc(F)c([C@@H](C)[C@H](NS(=O)(=O)c2ccc(Cl)cc2Cl)c2nn[nH]n2)c1C [Example 39, 2,4-dichloro-N-((1S,2R)-2-(6-fluoro-2,3-dimethylphenyl)-1-(2H-tetrazol-5-yl)propyl)benzenesulfonamide] |
| 50 to 100 | 0.1 to 1 | Cc1ccc(F)c([C@@H](C)[C@H](NS(=O)(=O)c2ccc(Cl)cc2O)c2nn[nH]n2)c1C [Example 41, 4-chloro-N-((1S,2R)-2-(6-fluoro-2,3-dimethylphenyl)-1-(2H-tetrazol-5-yl)propyl)-2-hydroxybenzenesulfonamide] |
| 50 to 100 | 1 to 5 | Cc1ccc(F)c([C@@H](C)[C@H](NS(=O)(=O)c2cc(Cl)ccc2F)c2nn[nH]n2)c1C [Example 44] |
| 50 to 100 | 5 to 30 | Cc1ccc(F)c([C@@H](C)[C@H](NS(=O)(=O)c2cc(Cl)ccc2Cl)c2nn[nH]n2)c1C [Example 45] |
| 10 to 30 | 0.1 to 1 | Cc1cc(S(=O)(=O)N[C@H](c2nn[nH]n2)[C@H](C)c2c(F)ccc(C)c2C)ccc1Cl [Example 48] |
| 10 to 30 | 0.1 to 1 | Cc1ccc(F)c([C@@H](C)[C@H](NS(=O)(=O)c2ccc(Cl)c(F)c2)c2nn[nH]n2)c1C [Example 49] |
| 30 to 50 | 0.1 to 1 | Cc1ccc(F)c([C@@H](C)[C@H](NS(=O)(=O)c2ccc(Cl)cc2C(F)F)c2nn[nH]n2)c1C [Example 50, 4-chloro-2-(difluoromethyl)-N-((1S,2R)-2-(6-fluoro-2,3-dimethylphenyl)-1-(2H-tetrazol-5-yl)propyl)benzenesulfonamide] |
| 50 to 100 | 5 to 30 | Cc1ccc(Cl)cc1S(=O)(=O)N[C@H](c1nn[nH]n1)[C@H](C)c1c(F)ccc(C)c1C [Example 53, 5-chloro-N-((1S,2R)-2-(6-fluoro-2,3-dimethylphenyl)-1-(2H-tetrazol-5-yl)propyl)-2-methylbenzenesulfonamide] |
| 10 to 30 | ≤ 0.1 | Cc1ccc(F)c([C@@H](C)[C@H](NS(=O)(=O)c2ccc(Cl)c(C)c2Cl)c2nn[nH]n2)c1C [Example 55, 2,4-dichloro-N-((1S,2R)-2-(6-fluoro-2,3-dimethylphenyl)-1-(2H-tetrazol-5-yl)propyl)-3-methylbenzenesulfonamide] |
| 50 to 100 | 0.1 to 1 | Cc1ccc(F)c([C@@H](C)[C@H](NS(=O)(=O)c2ccc(Cl)c([C@@H](O)C(=O)N(C)C)c2)c2nn[nH]n2)c1C [Example 57, (R)-2-(2-chloro-5-(N-((1S,2R)-2-(6-fluoro-2,3-dimethylphenyl)-1-(2H-tetrazol-5-yl)propyl)sulfamoyl)phenyl)-2-hydroxy-N,N-dimethylacetamide] |
| 50 to 100 | 0.1 to 1 | Cc1ccc(F)c([C@@H](C)[C@H](NS(=O)(=O)c2ccc(Cl)c([C@H](O)C(=O)N(C)C)c2)c2nn[nH]n2)c1C [Example 58, (S)-2-(2-chloro-5-(N-((1S,2R)-2-(6-fluoro-2,3-dimethylphenyl)-1-(2H-tetrazol-5-yl)propyl)sulfamoyl)phenyl)-2-hydroxy-N,N-dimethylacetamide] |
| 50 to 100 | 0.1 to 1 | Cc1ccc(F)c([C@@H](C)[C@H](NS(=O)(=O)c2ccc(Cl)c(C(C)(O)C(=O)N(C)C)c2)c2nn[nH]n2)c1C (stereo partly drawn) [Example 59, 2-(2-chloro-5-(N-((1S,2R)-2-(6-fluoro-2,3-dimethylphenyl)-1-(2H-tetrazol-5-yl)propyl)sulfamoyl)phenyl)-2-hydroxy-N,N-dimethylpropanamide] |
| 50 to 100 | 1 to 5 | Cc1ccc(Cl)c(S(=O)(=O)N[C@H](c2nn[nH]n2)[C@H](C)c2c(F)ccc(C)c2C)c1 [Example 60, 2-chloro-N-((1S,2R)-2-(6-fluoro-2,3-dimethylphenyl)-1-(2H-tetrazol-5-yl)propyl)-5-methylbenzenesulfonamide] |
| 50 to 100 | 0.1 to 1 | Cc1ccc(F)c([C@@H](C)[C@H](NS(=O)(=O)c2ccc(Cl)c(C(F)(F)C(=O)N(C)C)c2)c2nn[nH]n2)c1C [Example 72, 2-(2-chloro-5-(N-((1S,2R)-2-(6-fluoro-2,3-dimethylphenyl)-1-(2H-tetrazol-5-yl)propyl)sulfamoyl)phenyl)-2,2-difluoro-N,N-dimethylacetamide] |
| 10 to 30 | 0.1 to 1 | COc1c(S(=O)(=O)N[C@H](c2nn[nH]n2)[C@H](C)c2c(F)ccc(C)c2C)ccc(Cl)c1F [Example 73, 4-chloro-3-fluoro-N-((1S,2R)-2-(6-fluoro-2,3-dimethylphenyl)-1-(2H-tetrazol-5-yl)propyl)-2-methoxybenzenesulfonamide] |
